Results on nine molecules are retold here after PubChem BioAssay (NCI).

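96-well plates; 48 h exposure; 5 concentrations. Endpoints by linear interpolation between flanking doses. Not reached: highest tested concentration assigned. GI50: concentration for 50% inhibition of growth. TGI: total growth inhibition.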 Some results are limits rather than exact numbers.

Some test systems named below: A549 NSCLC; CCRF-CEM leukemia; HOP-62 NSCLC; HS 578T breast; MCF7 breast; NCI-H226 lung; RPMI-8226 leukemia; SF-539 CNS.
What all share (assay): DTP human tumour cell line panel, 48 h

What is called GI50 is the concentration that inhibits growth by half. The TGI is the concentration giving total growth inhibition. Low readings indicate more potent growth arrest, high ones less potent growth arrest.

Regarding `COC(=O)Nc1nc2ccc(Oc3ccc(NC(=O)Nc4ccccc4)cc3)cc2[nH]1`, the GI50 in the experiment on A549 NSCLC is 533 nM; with CCRF-CEM leukemia it was 123 nM; with HOP-62 NSCLC, 109 nM; in the experiment on HS 578T breast, 92.1 nM; in the experiment on MCF7 breast, 93.2 nM; in the experiment with NCI-H226 lung, 180 nM. In addition, the GI50 in the experiment on RPMI-8226 leukemia was 748 nM; in the experiment on SF-539 CNS it was 88.5 nM. Further, the TGI is 5320 nM with A549 NSCLC; greater than 8590 nM in the experiment on CCRF-CEM leukemia; 2520 nM with HOP-62 NSCLC; 4450 nM in the experiment on HS 578T breast; 5210 nM with NCI-H226 lung; greater than 10000 nM in the experiment with RPMI-8226 leukemia. Besides, the TGI with SF-539 CNS was 878 nM.

Regarding `CCc1[nH]c(=O)nc(N)c1-c1ccc(N2CCCCC2)c([N+](=O)[O-])c1`, the TGI in the experiment on A549 NSCLC, with CCRF-CEM leukemia, with HOP-62 NSCLC, with HS 578T breast, in the experiment with MCF7 breast and with NCI-H226 lung was greater than 100000 nM each time. The concentration for total growth inhibition (TGI) in the experiment on RPMI-8226 leukemia and in the experiment on SF-539 CNS was greater than 100000 nM each time.

Consider `CCN1C(=O)CNc2ncc(-c3ccc(-c4ncn[nH]4)nc3C)nc21`, for which the GI50 with A549 NSCLC is 263 nM; in the experiment on CCRF-CEM leukemia it was 215 nM; in the experiment with HOP-62 NSCLC, 140 nM; with HS 578T breast it was 111 nM; in the experiment with MCF7 breast it was 51 nM; in the experiment on NCI-H226 lung, 128 nM. Moreover, the GI50 in the experiment on RPMI-8226 leukemia is 45.4 nM; in the experiment with SF-539 CNS, 144 nM. Besides, the TGI in the experiment on A549 NSCLC is 7240 nM; with CCRF-CEM leukemia it was greater than 34800 nM; in the experiment on HOP-62 NSCLC, 2460 nM; with HS 578T breast it was 526 nM; in the experiment with MCF7 breast, 10700 nM; with NCI-H226 lung, 6440 nM. The TGI in the experiment on RPMI-8226 leukemia is 553 nM; in the experiment with SF-539 CNS, 859 nM.

`O=C(N/N=C/c1cccc(O)c1O)c1ccccc1`: the GI50 in the experiment with A549 NSCLC was 2010 nM; in the experiment on CCRF-CEM leukemia, 244 nM; in the experiment on HOP-62 NSCLC, 1520 nM; in the experiment with HS 578T breast it was 10500 nM; in the experiment on MCF7 breast, 357 nM; in the experiment with NCI-H226 lung it was 3220 nM. Besides, the GI50 in the experiment on RPMI-8226 leukemia was 1300 nM; with SF-539 CNS, 642 nM. Moreover, the total growth inhibition concentration (TGI) was greater than 100000 nM in the experiment with A549 NSCLC; greater than 59700 nM in the experiment with CCRF-CEM leukemia; greater than 100000 nM in the experiment with HOP-62 NSCLC; greater than 100000 nM in the experiment on HS 578T breast; greater than 100000 nM in the experiment on MCF7 breast; greater than 30200 nM in the experiment on NCI-H226 lung. In addition, the total growth inhibition concentration (TGI) is greater than 100000 nM in the experiment with RPMI-8226 leukemia and 15300 nM with SF-539 CNS.

On to `CCN(CC)c1ccc(C(=N)c2ccc(N(CC)CC)cc2)cc1`, for which the GI50 in the experiment on A549 NSCLC is 625 nM; in the experiment on CCRF-CEM leukemia, 741 nM; in the experiment on HOP-62 NSCLC it was 831 nM; in the experiment on HS 578T breast it was 590 nM; with MCF7 breast, 349 nM; with NCI-H226 lung it was 669 nM. Further, the results for the GI50 with RPMI-8226 leukemia and in the experiment with SF-539 CNS were 358 nM and 830 nM, respectively. Moreover, the TGI in the experiment on A549 NSCLC came out at 5940 nM; in the experiment with CCRF-CEM leukemia, 9300 nM; with HOP-62 NSCLC, 2600 nM; in the experiment on HS 578T breast, 2390 nM; in the experiment with MCF7 breast it was 1780 nM; with NCI-H226 lung, 2570 nM. Also, the TGI is 2420 nM in the experiment on RPMI-8226 leukemia and 2430 nM in the experiment with SF-539 CNS.

Regarding `COc1ccc(OC)c(/C=C/C(=O)N/N=C/c2ccc(Cl)cc2)c1`, the GI50 is 242 nM with A549 NSCLC; 141 nM with CCRF-CEM leukemia; 102 nM with HOP-62 NSCLC; 188 nM in the experiment on HS 578T breast; 52.9 nM in the experiment with MCF7 breast; 909 nM with NCI-H226 lung. Also, the GI50 with RPMI-8226 leukemia is 286 nM; in the experiment on SF-539 CNS, 157 nM. Also, the TGI was greater than 100000 nM with A549 NSCLC; greater than 100000 nM in the experiment with CCRF-CEM leukemia; greater than 70900 nM with HOP-62 NSCLC; greater than 100000 nM with HS 578T breast; greater than 57000 nM in the experiment with MCF7 breast; greater than 100000 nM in the experiment on NCI-H226 lung. In addition, the TGI in the experiment on RPMI-8226 leukemia was greater than 39600 nM; in the experiment on SF-539 CNS it was 11100 nM.

On to `O=C(c1cccc(O)c1O)c1cn(Cc2ccc(F)cc2)c2cccc(O)c12`, for which the GI50 in the experiment on A549 NSCLC was 3310 nM; with CCRF-CEM leukemia it was 861 nM; in the experiment on HOP-62 NSCLC, 5410 nM; in the experiment on HS 578T breast, 3420 nM; in the experiment with MCF7 breast it was 2140 nM; in the experiment with NCI-H226 lung it was 15900 nM. In addition, the GI50 was 564 nM in the experiment on RPMI-8226 leukemia and 2490 nM in the experiment with SF-539 CNS. Moreover, the TGI with A549 NSCLC was determined as 16700 nM; in the experiment on CCRF-CEM leukemia, 6440 nM; in the experiment with HOP-62 NSCLC, 19500 nM; in the experiment on HS 578T breast it was 20600 nM; with MCF7 breast, 13100 nM; in the experiment on NCI-H226 lung, 43800 nM. Moreover, the concentration for total growth inhibition (TGI) in the experiment on RPMI-8226 leukemia was 6990 nM; with SF-539 CNS, 11200 nM.

Take `CCN(CC)c1sc(N(CC)CC)c2c1SSSSS2`: the GI50 is 1840 nM in the experiment on A549 NSCLC; 359 nM in the experiment on CCRF-CEM leukemia; 2610 nM with HOP-62 NSCLC; 2750 nM with HS 578T breast; 1080 nM in the experiment on MCF7 breast; 1750 nM in the experiment on NCI-H226 lung. For the same molecule, the GI50 in the experiment with RPMI-8226 leukemia is 366 nM; with SF-539 CNS it was 995 nM. Moreover, the TGI with A549 NSCLC was determined as 3640 nM; with CCRF-CEM leukemia, 1240 nM; in the experiment with HOP-62 NSCLC it was 4990 nM; in the experiment with HS 578T breast, 23200 nM; in the experiment with NCI-H226 lung, 3460 nM; with RPMI-8226 leukemia it was 1360 nM. This molecule also came in with a concentration for total growth inhibition (TGI) with SF-539 CNS of 2630 nM.

With `COc1cc(OC)c(/C=C/C(=O)c2c(OC)cccc2OC)c(OC)c1`, the GI50 in the experiment with A549 NSCLC was 907 nM; with CCRF-CEM leukemia, 1230 nM; in the experiment on HOP-62 NSCLC, 742 nM; with HS 578T breast, 1280 nM; in the experiment on MCF7 breast it was 392 nM; in the experiment on NCI-H226 lung it was 1990 nM. Further, the GI50 in the experiment on RPMI-8226 leukemia was 666 nM; with SF-539 CNS it was 533 nM. For the same molecule, the TGI in the experiment with A549 NSCLC is greater than 100000 nM; in the experiment with CCRF-CEM leukemia, greater than 100000 nM; with HOP-62 NSCLC, greater than 100000 nM; in the experiment with HS 578T breast, greater than 36300 nM; in the experiment on MCF7 breast, greater than 100000 nM; with NCI-H226 lung it was greater than 100000 nM. For the same molecule, the TGI is greater than 100000 nM in the experiment on RPMI-8226 leukemia and 4410 nM with SF-539 CNS.
